This is an account of results in article PMC2852583 (Biochemistry, 2010).

SMILES strings stand for the structures.

The target of this assay is T1, pKSI (Δ5-3-ketosteroid isomerase from Pseudomonas putida) (Pseudomonas putida, UniProt P07445, D40N).
T1 sequence (P07445 1-131 D40N): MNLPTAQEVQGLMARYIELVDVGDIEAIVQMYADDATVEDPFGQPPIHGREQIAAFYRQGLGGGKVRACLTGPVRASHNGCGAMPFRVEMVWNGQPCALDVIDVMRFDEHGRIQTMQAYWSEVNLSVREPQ
Description: fluorescence emission, linear combination of bound and free spectra. It is filed as binding.
For the compound `Oc1ccc2cc(O)ccc2c1` [2,6-dihydroxynaphthalene], the equilibrium dissociation constant (Kd) came to 20 ± 6 µM. For `Oc1ccc2cc(Br)ccc2c1` [6-bromo-2-naphthol], the Kd came to 4 ± 1 µM.

In the case of `N#Cc1ccc2cc(O)ccc2c1` [6-cyano-2-naphthol], the Kd turned out to be 2 ± 1 µM. Under `COc1ccc2cc(O)ccc2c1` [6-methoxy-2-naphthol] stands 10 ± 5 µM.

One may read the Kd as the free concentration of one partner at which half of the binding sites on the other are occupied at equilibrium, for simple one-to-one binding.
